Results taken from ChEMBL document CHEMBL1158253, “Isolation and structure of hemibastadinols 1-3 from the Papua New Guinea marine sponge Ianthella basta” (1996).
Calls of active or inactive are those of the source. The rule behind the calls is not given here.

How the values were obtained:
Neisseria gonorrhoeae = experiment: Antimicrobial activity against Neisseria gonorrhoeae ATCC 49226 after 16 hrs by disk susceptibility test; type: functional
Candida albicans = experiment: Antimicrobial activity against Candida albicans ATCC 90028 up to 100 ug/disk after 42 hrs by disk susceptibility test; type: functional, organism-based
Cryptococcus neoformans = experiment: Antimicrobial activity against Cryptococcus neoformans ATCC 90112 up to 100 ug/disk after 42 hrs by disk susceptibility test; type: functional, organism-based
Staphylococcus aureus = experiment: Antimicrobial activity against Staphylococcus aureus ATCC 29213 after 16 hrs by disk susceptibility test; type: functional
Escherichia coli = experiment: Antimicrobial activity against Escherichia coli ATCC 25922 up to 100 ug/disk after 16 hrs by disk susceptibility test; type: functional, organism-based
Enterococcus faecalis = experiment: Antimicrobial activity against Enterococcus faecalis ATCC 29212 after 16 hrs by disk susceptibility test; type: functional

| SMILES | MIC (Neisseria gonorrhoeae) | Activity (Candida albicans) | Activity (Cryptococcus neoformans) | MIC (Staphylococcus aureus) | Activity (Escherichia coli) | MIC (Enterococcus faecalis) |
| --- | --- | --- | --- | --- | --- | --- |
| NC(=O)C(=O)NCCc1ccc(O)c(Br)c1 | 10 µg | inactive | inactive |  |  |  |
| COc1ccc(C/C(=N/O)C(=O)NCCc2ccc(O)c(Br)c2)cc1Br | 6.25 µg | inactive | inactive | 6.25 µg |  |  |
| O=C(NCCc1ccc(O)c(Br)c1)/C(Cc1ccc(Oc2cc(C/C(=N/O)C(=O)NCCc3ccc(O)c(Br)c3)cc(Br)c2O)c(Br)c1)=N\O [BASTADIN1] | 50 µg | inactive | inactive | 6.25 µg | inactive | 12.5 µg |
| O=C(NCCc1ccc(O)c(Br)c1)/C(Cc1cc(Br)c(O)c(Oc2c(Br)cc(C/C(=N\O)C(=O)NCCc3ccc(O)c(Br)c3)cc2Br)c1)=N\O [BASTADIN 2] | 50 µg | inactive | inactive | 6.25 µg |  | 50 µg |
| O=C(NCCc1ccc(O)c(Br)c1)/C(Cc1cc(Br)c(O)c(-c2cc(C/C(=N/O)C(=O)NCCc3ccc(O)c(Br)c3)cc(Br)c2O)c1)=N\O [BASTADIN 3] | 0.78 µg | inactive | inactive | 1.56 µg |  | 3.12 µg |
| O=C1N/C=C/c2ccc(c(Br)c2)Oc2cc(cc(Br)c2O)CCNC(=O)/C(=N/O)Cc2cc(Br)c(c(Br)c2)Oc2cc(cc(Br)c2O)C/C1=N\O [BASTADIN 4] | 12.5 µg | inactive | inactive | 12.5 µg |  | 50 µg |
| O=C1NCCc2cc(Br)c(O)c(c2)Oc2ccc(cc2Br)CCNC(=O)/C(=N\O)Cc2cc(Br)c(O)c(c2)Oc2c(Br)cc(cc2Br)C/C1=N/O [BASTADIN 5] | 50 µg | inactive | inactive | 12.5 µg |  | 50 µg |
| O=C1NCCc2cc(Br)c(O)c(c2)Oc2c(Br)cc(cc2Br)CCNC(=O)/C(=N/O)Cc2cc(Br)c(O)c(c2)Oc2c(Br)cc(cc2Br)C/C1=N\O [BASTADIN 6] |  | inactive | inactive | 6.25 µg |  | 12.5 µg |
| O=C(NCCc1ccc(O)c(Br)c1)/C(Cc1ccc(O)c(Br)c1)=N\O [HEMIBASTADIN 1] | 12.5 µg | inactive | inactive | 1.56 µg |  | 50 µg |
| O=C(NCCc1ccc(O)c(Br)c1)/C(Cc1cc(Br)c(O)c(Br)c1)=N\O [HEMIBASTADIN 2] | 3.12 µg | inactive | inactive | 3.12 µg |  |  |
| O=C(NCCc1ccc(O)c(Br)c1)[C@@H](O)Cc1ccc(O)c(Br)c1 [HEMIBASTADINOL 1] | 50 µg | inactive | inactive |  |  | 50 µg |
